Reference: PubChem BioAssay AID330 (DTP/NCI, 2004)
“And” between values parts separate entries of the source, which are not always exact repeats. Equal entries are not always repeated. Toxic doses and inconclusive results are not listed. The calls were made as follows: active = survival T/C of 150% or more; inactive = T/C below 125% in these data.

Tested on: P388 leukemia ip, CD2F1 mice, survival T/C
Assay: NCI In Vivo Anticancer Drug Screen. Data for tumor model P388 Leukemia (intraperitoneal) in CD2F1 (CDF1) mice
Conditions: endpoint: median survival time, higher = longer survival
Method in brief: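 Mice carrying the transplanted tumor received test compound or vehicle. Survival was recorded in each group, and the value is the treated-group measurement divided by that of the vehicle-treated control group.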

[1] = dose: 100.0 mg/kg/injection, schedule: Q01DX009 (ip), vehicle: saline
[2] = dose: 200.0 mg/kg/injection, schedule: Q01DX009 (ip), vehicle: saline
[3] = dose: 50.0 mg/kg/injection, schedule: Q01DX009 (ip), vehicle: saline
[4] = dose: 50.0 mg/kg/injection, schedule: Q01DX009 (ip), vehicle: Klucel (hydroxypropylcellulose) (HPC)
[5] = dose: 50.0 mg/kg/injection, schedule: Q01DX005 (ip), vehicle: Klucel (hydroxypropylcellulose) (HPC)
[6] = dose: 100.0 mg/kg/injection, schedule: Q01DX005 (ip), vehicle: Klucel (hydroxypropylcellulose) (HPC)
[7] = dose: 200.0 mg/kg/injection, schedule: Q01DX005 (ip), vehicle: Klucel (hydroxypropylcellulose) (HPC)
[8] = dose: 100.0 mg/kg/injection, schedule: Q04DX003 (ip), vehicle: saline with Tween-80
[9] = dose: 200.0 mg/kg/injection, schedule: Q04DX003 (ip), vehicle: saline with Tween-80
[10] = dose: 50.0 mg/kg/injection, schedule: Q01DX005 (ip), vehicle: saline with Tween-80
[11] = dose: 100.0 mg/kg/injection, schedule: Q01DX005 (ip), vehicle: saline with Tween-80
[12] = dose: 200.0 mg/kg/injection, schedule: Q01DX005 (ip), vehicle: saline with Tween-80
[13] = dose: 60.0 mg/kg/injection, schedule: Q01DX005 (ip), vehicle: saline with Tween-80
[14] = dose: 120.0 mg/kg/injection, schedule: Q01DX005 (ip), vehicle: saline with Tween-80
[15] = dose: 240.0 mg/kg/injection, schedule: Q01DX005 (ip), vehicle: saline with Tween-80

Measured: T/C

[Cu+2].[NH-]C(CC(=O)O)C(=O)O.[NH-]C(CC(=O)O)C(=O)O (stereo unspecified)
inactive: dose: 7.5 mg/kg/injection, schedule: Q01DX005 (ip), vehicle: saline with Tween-80 98 % of control | dose: 15.0 mg/kg/injection, schedule: Q01DX005 (ip), vehicle: saline with Tween-80 100 % of control | dose: 30.0 mg/kg/injection, schedule: Q01DX005 (ip), vehicle: saline with Tween-80 111 % of control

Cc1cc(O)ccc1O
inactive: [1] 100 % of control and 116 % of control | [2] 112 % of control and 117 % of control

Cc1ccc(S(=O)(=O)C(CC(=O)CCN(C)C)c2ccccc2)cc1 (stereo unspecified)
inactive: dose: 25.0 mg/kg/injection, schedule: Q04DX002 (ip), vehicle: saline 100 % of control | [3] 96 % of control | dose: 50.0 mg/kg/injection, schedule: Q04DX002 (ip), vehicle: saline 103 % of control and 95 % of control | [1] 102 % of control | dose: 100.0 mg/kg/injection, schedule: Q04DX002 (ip), vehicle: saline 100 % of control | dose: 200.0 mg/kg/injection, schedule: Q04DX002 (ip), vehicle: saline 100 % of control

c1c(NC2=NCCO2)cc2c3c1CCCN3CCC2
inactive: dose: 12.5 mg/kg/injection, schedule: Q04DX003 (ip), vehicle: saline with Tween-80 90 % of control | dose: 25.0 mg/kg/injection, schedule: Q04DX003 (ip), vehicle: saline with Tween-80 100 % of control | dose: 50.0 mg/kg/injection, schedule: Q04DX003 (ip), vehicle: saline with Tween-80 109 % of control

CN=C1NC(=O)C(C(C)c2c[nH]c3ccccc23)S1 (stereo unspecified)
inactive: [4] 111 % of control | dose: 100.0 mg/kg/injection, schedule: Q01DX009 (ip), vehicle: Klucel (hydroxypropylcellulose) (HPC) 111 % of control | dose: 200.0 mg/kg/injection, schedule: Q01DX009 (ip), vehicle: Klucel (hydroxypropylcellulose) (HPC) 113 % of control

CN1CCC(O)(O)C(Cl)(Cl)C1
inactive: dose: 50.0 mg/kg/injection, schedule: Q01DX005 (ip), vehicle: suspension in saline 104 % of control | dose: 100.0 mg/kg/injection, schedule: Q01DX005 (ip), vehicle: suspension in saline 99 % of control | dose: 200.0 mg/kg/injection, schedule: Q01DX005 (ip), vehicle: suspension in saline 95 % of control

Cc1ccccc1-n1c(COc2c(C)cccc2C)n[nH]c1=S
inactive: [5] 93 % of control | [6] 97 % of control | [7] 99 % of control

COC1C(C)OC(OC2CC(C)(O)Cc3cc4c(c(O)c32)C(=O)c2c(O)cc3c(c2C4=O)OC2OC3(C)C(O)C(N(C)C=O)C2O)C(OC)C1(C)OC (stereo unspecified)
inactive: dose: 3.12 mg/kg/injection, schedule: Q04DX003 (ip), vehicle: other 100 % of control | dose: 6.25 mg/kg/injection, schedule: Q04DX003 (ip), vehicle: other 97 % of control | dose: 12.5 mg/kg/injection, schedule: Q04DX003 (ip), vehicle: other 94 % of control | dose: 25.0 mg/kg/injection, schedule: Q04DX003 (ip), vehicle: other 91 % of control | dose: 50.0 mg/kg/injection, schedule: Q04DX003 (ip), vehicle: other 95 % of control

CC1(C)CC2(CC3(C1)SCCS3)OCCO2
inactive: [8] 98 % of control | [9] 99 % of control | dose: 400.0 mg/kg/injection, schedule: Q04DX003 (ip), vehicle: saline with Tween-80 97 % of control

O=c1[nH]c2cc([N+](=O)[O-])ccc2nc1/C=C(\O)c1ccco1
inactive: dose: 60.0 mg/kg/injection, schedule: Q01DX005 (ip), vehicle: Klucel + Tween-80 100 % of control | dose: 120.0 mg/kg/injection, schedule: Q01DX005 (ip), vehicle: Klucel + Tween-80 94 % of control | dose: 240.0 mg/kg/injection, schedule: Q01DX005 (ip), vehicle: Klucel + Tween-80 94 % of control

CCOP(=O)(Nc1ccccc1OC)OCC
inactive: [3] 104 % of control | dose: 100.0 mg/kg/injection, schedule: Q01DX001 (ip), vehicle: saline 110 % of control | [1] 107 % of control | dose: 200.0 mg/kg/injection, schedule: Q01DX001 (ip), vehicle: saline 105 % of control | [2] 100 % of control | dose: 400.0 mg/kg/injection, schedule: Q01DX001 (ip), vehicle: saline 102 % of control

CCOC(=O)N1C=C(C(=O)OC)C(c2ccccc2)C(C(=O)OC)=C1
inactive: [10] 95 % of control | [11] 106 % of control | [12] 97 % of control

O=C(O)c1ccc(C(=O)c2ccc([N+](=O)[O-])cc2)cc1
inactive: [13] 103 % of control | [14] 104 % of control | [15] 103 % of control

COc1cc2c(cc1OC)CC(=O)OC2
inactive: [5] 105 % of control | [6] 102 % of control | [7] 103 % of control

CC(C)CCNO
inactive: [10] 96 % of control | [11] 100 % of control | [12] 93 % of control

CC(=O)Nc1ccc2c(c1)C(N)c1ccccc1-2 (stereo unspecified)
inactive: [8] 104 % of control | [9] 118 % of control

CC1=CC(=Nc2cc(Cl)c(O)c(Cl)c2)C=CC1=O
inactive: dose: 6.25 mg/kg/injection, schedule: Q01DX005 (ip), vehicle: saline 96 % of control | dose: 12.5 mg/kg/injection, schedule: Q01DX005 (ip), vehicle: saline 96 % of control | dose: 25.0 mg/kg/injection, schedule: Q01DX005 (ip), vehicle: saline 89 % of control

O=C(CCCl)Nc1ccccc1C(=O)CCc1cn(C(=O)CCCl)c2ccccc12
inactive: [13] 107 % of control | [14] 102 % of control | [15] 96 % of control

O=C(c1ccc(Br)cc1)c1ccc(Br)cc1
inactive: dose: 10.0 mg/kg/injection, schedule: Q01DX009 (ip), vehicle: other 100 % of control | dose: 20.0 mg/kg/injection, schedule: Q01DX009 (ip), vehicle: other 105 % of control | dose: 40.0 mg/kg/injection, schedule: Q01DX009 (ip), vehicle: other 92 % of control | dose: 50.0 mg/kg/injection, schedule: Q04DX003 (ip), vehicle: saline 99 % of control | dose: 80.0 mg/kg/injection, schedule: Q01DX009 (ip), vehicle: other 92 % of control | dose: 100.0 mg/kg/injection, schedule: Q04DX003 (ip), vehicle: saline 93 % of control | dose: 160.0 mg/kg/injection, schedule: Q01DX009 (ip), vehicle: other 105 % of control | dose: 200.0 mg/kg/injection, schedule: Q04DX003 (ip), vehicle: saline 94 % of control | dose: 320.0 mg/kg/injection, schedule: Q01DX009 (ip), vehicle: other 100 % of control | dose: 400.0 mg/kg/injection, schedule: Q04DX003 (ip), vehicle: saline 95 % of control

Nc1ccc(OCCNS(=O)(=O)c2cccc(S(=O)(=O)F)c2)c(Cl)c1
inactive: dose: 37.5 mg/kg/injection, schedule: Q01DX001 (ip), vehicle: saline with Tween-80 95 % of control | dose: 75.0 mg/kg/injection, schedule: Q01DX001 (ip), vehicle: saline with Tween-80 95 % of control | dose: 150.0 mg/kg/injection, schedule: Q01DX001 (ip), vehicle: saline with Tween-80 90 % of control

CCOC(=O)C(CCc1ccc(N(CCCl)CCCl)cc1)(NC(C)=O)C(=O)OCC
inactive: dose: 12.5 mg/kg/injection, schedule: Q01DX009 (ip), vehicle: Klucel (hydroxypropylcellulose) (HPC) 109 % of control | dose: 25.0 mg/kg/injection, schedule: Q01DX009 (ip), vehicle: Klucel (hydroxypropylcellulose) (HPC) 111 % of control | [4] 116 % of control
